The values that follow come from US20230286970A1, “NOVEL OXADIAZOLE-BASED SELECTIVE HDAC6 INHIBITORS” (ITALFARMACO S.P.A., priority 2020, published 2023).

Series [1] is described as follows: Stability to Phase I metabolism in human S9 liver fraction. As to conditions: after 90 minutes, 37° C.
The target of series [2] is recombinant human HDAC6 (Homo sapiens (Human), UniProt Q9UBN7). Kind of series: Enzymatic screening, HDAC6 inhibition (fluorogenic FdL_G substrate). The format is biochemical. A digest of the protocol: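 Enzyme was preincubated with compound (8 doses, triplicate, 1% DMSO) in 25 mM Tris-HCl pH 8, 130 mM NaCl, 0.05% Tween-20, 10% glycerol, with BSA. A FLUOR DE LYS-Green substrate was then added, and fluorescence was read after developer plus 2 μM TSA.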

Series [3] addresses recombinant human HDAC1 (Homo sapiens (Human), UniProt Q13547). Nature of the series: Enzymatic screening, HDAC1 inhibition (fluorogenic FdL_G substrate). The format is biochemical. In outline: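 Recombinant human HDAC1 inhibition was measured fluorometrically using the FLUOR DE LYS-Green (FdL_G) substrate. Compounds at 8 doses (1% DMSO final) in Tris-HCl pH 8 buffer with NaCl, Tween-20 and glycerol were preincubated in triplicate with enzyme and 1 mg/mL BSA, then given substrate. Developer I plus 2 μM TSA was added, and fluorescence read after 25 minutes in the dark.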

Series [4] can be described thus: Stability in rat plasma. As to conditions: after 4 hours, 37° C.
Procedure: In order to evaluate the stability to circulating enzymes, test compounds were incubated in human and rat plasma at 37° C. in a thermostated oscillating bath. Each test compound was incubated at μM concentration (50 μM when the samples were analysed by UV/HPLC, 1 or 2 μM when the samples were analysed by LC-MS/MS) for 0, 15, 30 minutes and 1, 2 and 4 hours. The reaction was stopped placing samples on ice bath and adding acidified acetonitrile. After centrifugation (10 minutes at 14000 rpm) an aliquot of the supernatant was diluted with water, filtered with 0.45 μm regenerated cellulose syringe filters and injected in HPLC-UV or in LC-MS/MS. The percentage of the remaining amount at the various incubation times with respect to the initial amount were calculated. The half-life in plasma was also calculated.
Series [5] is described as follows: Stability to Phase I metabolism in rat S9 liver fraction. To be noted: after 90 minutes, 37° C.
Series [6] can be described thus: Stability in human plasma. To be noted: after 4 hours, 37° C.

The structures appear in SMILES notation.

Chain of recombinant human HDAC1 (Q13547 whole entry): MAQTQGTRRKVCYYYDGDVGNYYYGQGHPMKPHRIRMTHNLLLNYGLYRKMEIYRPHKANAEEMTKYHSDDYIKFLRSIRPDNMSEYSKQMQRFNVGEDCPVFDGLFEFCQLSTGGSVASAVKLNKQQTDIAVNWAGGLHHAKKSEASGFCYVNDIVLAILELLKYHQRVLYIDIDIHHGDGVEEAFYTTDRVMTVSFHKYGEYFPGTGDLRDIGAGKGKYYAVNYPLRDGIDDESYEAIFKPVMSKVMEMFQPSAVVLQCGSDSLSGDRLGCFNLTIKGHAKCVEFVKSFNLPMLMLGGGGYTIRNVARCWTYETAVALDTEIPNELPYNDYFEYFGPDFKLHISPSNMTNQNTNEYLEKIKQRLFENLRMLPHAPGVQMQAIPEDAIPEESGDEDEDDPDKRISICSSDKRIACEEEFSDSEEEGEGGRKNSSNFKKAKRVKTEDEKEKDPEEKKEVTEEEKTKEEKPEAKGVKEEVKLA
Chain of recombinant human HDAC6 (Q9UBN7 whole entry): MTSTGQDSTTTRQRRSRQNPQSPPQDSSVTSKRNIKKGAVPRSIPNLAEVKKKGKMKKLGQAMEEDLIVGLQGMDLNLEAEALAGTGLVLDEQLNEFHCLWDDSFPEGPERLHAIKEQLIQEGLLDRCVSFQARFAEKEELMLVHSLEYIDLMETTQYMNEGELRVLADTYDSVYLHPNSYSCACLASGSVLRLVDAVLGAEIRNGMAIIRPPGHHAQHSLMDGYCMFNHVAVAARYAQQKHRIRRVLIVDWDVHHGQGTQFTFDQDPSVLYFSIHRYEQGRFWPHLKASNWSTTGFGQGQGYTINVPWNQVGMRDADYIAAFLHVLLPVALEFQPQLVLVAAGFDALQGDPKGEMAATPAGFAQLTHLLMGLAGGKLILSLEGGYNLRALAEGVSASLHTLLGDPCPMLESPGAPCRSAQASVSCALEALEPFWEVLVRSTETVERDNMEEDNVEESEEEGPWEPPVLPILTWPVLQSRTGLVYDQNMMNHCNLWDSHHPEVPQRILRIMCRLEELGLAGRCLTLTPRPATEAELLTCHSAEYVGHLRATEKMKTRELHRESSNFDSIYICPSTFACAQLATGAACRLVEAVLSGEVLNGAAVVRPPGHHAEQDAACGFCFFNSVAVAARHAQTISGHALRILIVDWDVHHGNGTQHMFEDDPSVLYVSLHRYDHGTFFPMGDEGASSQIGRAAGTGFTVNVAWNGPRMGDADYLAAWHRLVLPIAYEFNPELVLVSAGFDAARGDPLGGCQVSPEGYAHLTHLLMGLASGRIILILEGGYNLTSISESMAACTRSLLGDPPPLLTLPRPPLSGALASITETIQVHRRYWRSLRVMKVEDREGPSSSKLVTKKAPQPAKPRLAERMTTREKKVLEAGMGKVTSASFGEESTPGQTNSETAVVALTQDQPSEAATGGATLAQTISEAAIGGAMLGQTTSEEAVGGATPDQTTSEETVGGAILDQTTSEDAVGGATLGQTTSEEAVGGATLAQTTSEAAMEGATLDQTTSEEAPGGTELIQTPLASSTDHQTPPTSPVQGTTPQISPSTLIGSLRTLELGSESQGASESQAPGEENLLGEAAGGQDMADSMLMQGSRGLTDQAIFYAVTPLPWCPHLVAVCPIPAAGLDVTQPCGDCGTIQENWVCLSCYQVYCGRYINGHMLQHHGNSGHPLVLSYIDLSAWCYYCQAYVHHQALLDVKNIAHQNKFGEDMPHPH

The IC50 is the concentration that gives 50% inhibition. Regarding `CN1CCC(NC(=O)c2cccc(-c3nnn(Cc4ccc(-c5nnc(C(F)F)o5)cc4)n3)c2)CC1` [compound 80, 3-(2-(4-(5-(difluoromethyl)-1,3,4-oxadiazol-2-yl)benzyl)-2H-tetrazol-5-yl)-N-(1-methylpiperidin-4-yl)benzamide], the “residual percentage in HUMAN S9 FRACTION” value in series [1] turned out to be 94%. In addition, the IC50 in series [2] is 0.033 µM; in series [3], over 200 µM. In series [4], the “residual percentage in RAT PLASMA” value is on record as 88%. The “residual percentage in RAT S9 FRACTION” value in series [5] stood at 46%. Further, the “residual percentage in HUMAN PLASMA” value in series [6] is recorded as 97%.

Take `CCC[C@@H](c1ccc(-c2nnc(C(F)F)o2)cc1)n1cc(-c2ccc(N)nc2)nn1` (stereo in doubt) [compound 193, 5-(1-(1-(4-(5-(difluoromethyl)-1,3,4-oxadiazol-2-yl)phenyl)butyl)-1H-1,2,3-triazol-4-yl)pyridin-2-amine]: the “residual percentage in HUMAN S9 FRACTION” value in series [1] came out at 87%. For the same compound, the IC50 is 0.104 µM in series [2] and over 200 µM in series [3]. The “residual percentage in RAT PLASMA” value in series [4] is given as 92%. In addition, the “residual percentage in RAT S9 FRACTION” value in series [5] turned out to be 80%. In addition, the “residual percentage in HUMAN PLASMA” value in series [6] stood at 81%.

On to `O=C1Nc2ccc(-c3cn(Cc4ccc(-c5nnc(C(F)F)o5)cn4)nn3)cc2NC12CCNCC2` [compound 36], for which, in series [1], the “residual percentage in HUMAN S9 FRACTION” value came out at 89%. Moreover, the IC50 was 0.016 µM in series [2] and over 200 µM in series [3]. Moreover, the “residual percentage in RAT PLASMA” value in series [4] was found to be 76%. Moreover, the “residual percentage in RAT S9 FRACTION” value in series [5] turned out to be 94%. The “residual percentage in HUMAN PLASMA” value in series [6] worked out at 78%.

Consider `O=C1NCc2ccc(-c3nnn(Cc4ccc(-c5nnc(C(F)F)o5)c(F)c4)n3)cc21` [compound 97, 6-(2-(4-(5-(difluoromethyl)-1,3,4-oxadiazol-2-yl)-3-fluorobenzyl)-2H-tetrazol-5-yl)isoindolin-1-one], for which the “residual percentage in HUMAN S9 FRACTION” value in series [1] is 84%. Also, the IC50 in series [2] is 0.038 µM; in series [3] it was over 200 µM. In series [4], the “residual percentage in RAT PLASMA” value came to 96%. The “residual percentage in RAT S9 FRACTION” value in series [5] came to 95%. Besides, in series [6], the “residual percentage in HUMAN PLASMA” value is 76%.

For the compound `Nc1ccc(-c2cn(Cc3cc(F)c(-c4nnc(C(F)F)o4)cc3F)nn2)cn1` [compound 39, 5-(1-(4-(5-(difluoromethyl)-1,3,4-oxadiazol-2-yl)-2,5-difluorobenzyl)-1H-1,2,3-triazol-4-yl)pyridin-2-amine], the “residual percentage in HUMAN S9 FRACTION” value in series [1] is 100%. In addition, the IC50 is 0.018 µM in series [2] and over 200 µM in series [3]. For the same compound, the “residual percentage in RAT PLASMA” value in series [4] is listed as 71%. Also, in series [5], the “residual percentage in RAT S9 FRACTION” value stood at 96%. Also, the “residual percentage in HUMAN PLASMA” value in series [6] is on record as 83%.

In the case of `CCNC(=O)c1cccc(-c2nnn(Cc3ccc(-c4nnc(C(F)F)o4)cc3)n2)c1` [compound 91, 3-(2-(4-(5-(difluoromethyl)-1,3,4-oxadiazol-2-yl)benzyl)-2H-tetrazol-5-yl)-N-ethylbenzamide], the “residual percentage in HUMAN S9 FRACTION” value in series [1] was determined as 74%. Besides, the IC50 is 0.035 µM in series [2] and over 200 µM in series [3]. For the same compound, the “residual percentage in RAT PLASMA” value in series [4] came out at 93%. Further, in series [5], the “residual percentage in RAT S9 FRACTION” value was 68%. The “residual percentage in HUMAN PLASMA” value in series [6] came to 78%.

Take `Nc1ncnc2cc(-c3cn(Cc4ccc(-c5nnc(C(F)F)o5)cc4)nn3)ccc12` [compound 84, 7-(1-(4-(5-(difluoromethyl)-1,3,4-oxadiazol-2-yl)benzyl)-1H-1,2,3-triazol-4-yl)quinazolin-4-amine]: in series [1], the “residual percentage in HUMAN S9 FRACTION” value is 85%. The figures for the IC50 in series [2] and in series [3] were 0.033 µM and over 200 µM, respectively. Besides, in series [4], the “residual percentage in RAT PLASMA” value was 60%. For the same compound, in series [5], the “residual percentage in RAT S9 FRACTION” value was 62%. For the same compound, the “residual percentage in HUMAN PLASMA” value in series [6] is 80%.

Turning to `FC(F)c1nnc(-c2ccc(Cn3cc(-c4ccc(NC5=NCCN5)cc4)cn3)nc2)o1` [compd. 270, N-(4-(1-((5-(5-(difluoromethyl)-1,3,4-oxadiazol-2-yl)pyridin-2-yl)methyl)-1H-pyrazol-4-yl)phenyl)-4,5-dihydro-1H-imidazol-2-amine], the “residual percentage in HUMAN S9 FRACTION” value in series [1] is 93%. For the same compound, the IC50 in series [2] is 0.018 µM; in series [3], over 200 µM. The “residual percentage in RAT PLASMA” value in series [4] worked out at 78%. For the same compound, in series [5], the “residual percentage in RAT S9 FRACTION” value was determined as 79%. Moreover, in series [6], the “residual percentage in HUMAN PLASMA” value is recorded as 89%.

In the case of `O=C1NCc2ccc(-c3cn(Cc4ccc(-c5nnc(C(F)F)o5)cc4)nn3)cc21` [compound 109, 6-(1-(4-(5-(difluoromethyl)-1,3,4-oxadiazol-2-yl)benzyl)-1H-1,2,3-triazol-4-yl)isoindolin-1-one], in series [1], the “residual percentage in HUMAN S9 FRACTION” value is given as 82%. In addition, the IC50 is 0.042 µM in series [2] and over 200 µM in series [3]. In series [4], the “residual percentage in RAT PLASMA” value is 78%. Besides, the “residual percentage in RAT S9 FRACTION” value in series [5] was determined as 87%. Further, the “residual percentage in HUMAN PLASMA” value in series [6] came out at 89%.

For the compound `CC(c1ccc(-c2nnc(C(F)F)o2)cc1F)n1cc(-c2ccc(N)nc2)nn1` (stereo not drawn) [compound 185, 5-(1-(1-(4-(5-(difluoromethyl)-1,3,4-oxadiazol-2-yl)-2-fluorophenyl)ethyl)-1H-1,2,3-triazol-4-yl)pyridin-2-amine], the “residual percentage in HUMAN S9 FRACTION” value in series [1] is 86%. Further, the IC50 in series [2] is 0.096 µM; in series [3], over 200 µM. Further, the “residual percentage in RAT PLASMA” value in series [4] is 62%. The “residual percentage in RAT S9 FRACTION” value in series [5] amounted to 69%. The “residual percentage in HUMAN PLASMA” value in series [6] is listed as 97%.

On to `CC[C@H](c1ccc(-c2nnc(C(F)F)o2)cc1)n1cc(-c2ccc(N)nc2)nn1` (stereo in doubt) [compound 194, 5-(1-(1-(4-(5-(difluoromethyl)-1,3,4-oxadiazol-2-yl)phenyl)propyl)-1H-1,2,3-triazol-4-yl)pyridin-2-amine], for which, in series [1], the “residual percentage in HUMAN S9 FRACTION” value was 95%. Further, the figures for the IC50 in series [2] and in series [3] were 0.104 µM and over 200 µM, respectively. In addition, in series [4], the “residual percentage in RAT PLASMA” value stood at 88%. The “residual percentage in RAT S9 FRACTION” value in series [5] is on record as 77%. In addition, the “residual percentage in HUMAN PLASMA” value in series [6] is listed as 90%.

Consider `O=C1Nc2ccc(-c3cn(Cc4ccc(-c5nnc(C(F)F)o5)cn4)nn3)cc2C12CCNC2` (stereo not drawn) [compound 28, 5-(1-((5-(5-(difluoromethyl)-1,3,4-oxadiazol-2-yl)pyridin-2-yl)methyl)-1H-1,2,3-triazol-4-yl)spiro[indoline-3,3′-pyrrolidin]-2-one], for which, in series [1], the “residual percentage in HUMAN S9 FRACTION” value turned out to be 98%. The IC50 in series [2] was 0.013 µM; in series [3] it was over 200 µM. Moreover, the “residual percentage in RAT PLASMA” value in series [4] is on record as 64%. Moreover, in series [5], the “residual percentage in RAT S9 FRACTION” value came out at 97%. Also, in series [6], the “residual percentage in HUMAN PLASMA” value is 74%.

With `Nc1ccc(-c2nc(Cc3ccc(-c4nnc(C(F)F)o4)cc3)no2)cn1` [compound 247, 5-(3-(4-(5-(difluoromethyl)-1,3,4-oxadiazol-2-yl)benzyl)-1,2,4-oxadiazol-5-yl)pyridin-2-amine], the “residual percentage in HUMAN S9 FRACTION” value in series [1] came out at 98%. Besides, the IC50 was 0.272 µM in series [2] and over 200 µM in series [3]. The “residual percentage in RAT PLASMA” value in series [4] was determined as 81%. In addition, the “residual percentage in RAT S9 FRACTION” value in series [5] was found to be 65%. For the same compound, the “residual percentage in HUMAN PLASMA” value in series [6] turned out to be 99%.

For `COc1ncccc1-c1cn(Cc2ccc(-c3nnc(C(F)F)o3)cn2)nn1` [compound 53, 2-(difluoromethyl)-5-(6-((4-(2-methoxypyridin-3-yl)-1H-1,2,3-triazol-1-yl)methyl)pyridin-3-yl)-1,3,4-oxadiazole], the “residual percentage in HUMAN S9 FRACTION” value in series [1] turned out to be 88%. For the same compound, the IC50 in series [2] is 0.023 µM; in series [3], over 200 µM. The “residual percentage in RAT PLASMA” value in series [4] is on record as 78%. Moreover, in series [5], the “residual percentage in RAT S9 FRACTION” value is on record as 91%. In series [6], the “residual percentage in HUMAN PLASMA” value is 77%.

Regarding `COc1ncccc1-c1cn(Cc2ccc(-c3nnc(C(F)F)o3)cc2)nn1` [compound 131, 2-(difluoromethyl)-5-(4-((4-(2-methoxypyridin-3-yl)-1H-1,2,3-triazol-1-yl)methyl)phenyl)-1,3,4-oxadiazole], the “residual percentage in HUMAN S9 FRACTION” value in series [1] is reported as 83%. The IC50 in series [2] was 0.051 µM; in series [3], over 200 µM. In addition, the “residual percentage in RAT PLASMA” value in series [4] came to 82%. Besides, the “residual percentage in RAT S9 FRACTION” value in series [5] turned out to be 58%. Further, the “residual percentage in HUMAN PLASMA” value in series [6] was 92%.

For the compound `O=C(Nc1ccc(-c2nnc(Cc3ccc(-c4nnc(C(F)F)o4)cn3)s2)cn1)C(F)F` [Compd. 102, N-(5-(5-((5-(5-(difluoromethyl)-1,3,4-oxadiazol-2-yl)pyridin-2-yl)methyl)-1,3,4-thiadiazol-2-yl)pyridin-2-yl)-2,2-difluoroacetamide], in series [1], the “residual percentage in HUMAN S9 FRACTION” value came to 82%. The results for the IC50 in series [2] and in series [3] were 0.039 µM and over 200 µM, respectively. The “residual percentage in RAT PLASMA” value in series [4] turned out to be 90%. For the same compound, the “residual percentage in RAT S9 FRACTION” value in series [5] was determined as 56%. Moreover, in series [6], the “residual percentage in HUMAN PLASMA” value stood at 92%.

With `Nc1ccc(-c2cnn(Cc3ccc(-c4nnc(C(F)F)o4)cc3)c2)cn1` [compound 211, 5-(1-(4-(5-(difluoromethyl)-1,3,4-oxadiazol-2-yl)benzyl)-1H-pyrazol-4-yl)pyridin-2-amine], the “residual percentage in HUMAN S9 FRACTION” value in series [1] is 63%. Besides, the values for the IC50 in series [2] and in series [3] were 0.147 µM and over 200 µM, respectively. Besides, in series [4], the “residual percentage in RAT PLASMA” value was 89%. For the same compound, the “residual percentage in RAT S9 FRACTION” value in series [5] was 80%. Moreover, in series [6], the “residual percentage in HUMAN PLASMA” value worked out at 91%.
